The source of these data is ChEMBL document CHEMBL1146848, “The development of novel 1,2-dihydro-pyrimido[4,5-c]pyridazine based inhibitors of lymphocyte specific kinase (Lck)” (Bioorg Med Chem Lett, 2006).

≈ marks a conversion by molar mass, not a printed value.

In data set [1] the target is Tyrosine-protein kinase Lck (Homo sapiens, UniProt P06239). Nature of the data set: Inhibition of human recombinant Lck in presence of 10 mM ATP.
Data set [2] is described as follows: Metabolic stability in Sprague-Dawley rat liver microsome after 1 hr. Format: ADME. As to conditions: liver microsomes, read-out: Stability; call rule not given here.
The nature of data set [3]: Bioavailability in rat. Format: ADME, organism-based. As to conditions: in vivo.
Data set [4] has as its system Jurkat. Description: Inhibition of anti-human CD3 epsilon-stimulated IL2 production in Jurkat E6-1 T cells. Format: functional, cell-based.
Data set [5] deals with Tyrosine-protein kinase HCK (Homo sapiens, UniProt P08631). Nature of the data set: Inhibition of human recombinant Hck in presence of 10 mM ATP.
Chain of Tyrosine-protein kinase HCK (P08631 whole entry): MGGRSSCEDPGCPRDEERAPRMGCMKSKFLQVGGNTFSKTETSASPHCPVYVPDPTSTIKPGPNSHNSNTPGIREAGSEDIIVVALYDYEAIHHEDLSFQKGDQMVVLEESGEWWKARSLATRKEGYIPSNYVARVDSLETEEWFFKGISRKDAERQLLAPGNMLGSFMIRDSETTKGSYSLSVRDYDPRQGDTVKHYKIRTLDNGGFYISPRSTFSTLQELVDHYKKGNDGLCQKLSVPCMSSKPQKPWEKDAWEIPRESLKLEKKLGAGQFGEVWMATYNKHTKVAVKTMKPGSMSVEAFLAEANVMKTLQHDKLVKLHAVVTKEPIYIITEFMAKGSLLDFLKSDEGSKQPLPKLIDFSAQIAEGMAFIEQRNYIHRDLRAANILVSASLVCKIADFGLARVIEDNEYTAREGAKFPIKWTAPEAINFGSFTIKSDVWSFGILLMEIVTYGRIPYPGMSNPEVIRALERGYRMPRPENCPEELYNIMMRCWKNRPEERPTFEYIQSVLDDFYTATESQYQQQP
Data set [6] is described as follows: Aqueous solubility of the compound. Format: physicochemical. As to conditions: buffer.
Data set [7] in a line: Half life in rat. In kind it is ADME, organism-based. The following applies: in vivo.
Data set [8] deals with Proto-oncogene tyrosine-protein kinase Src (Homo sapiens, UniProt P12931). Nature of the data set: Inhibition of human recombinant Src in presence of 10 mM ATP.
Chain of Proto-oncogene tyrosine-protein kinase Src (P12931 2-536 limits assumed): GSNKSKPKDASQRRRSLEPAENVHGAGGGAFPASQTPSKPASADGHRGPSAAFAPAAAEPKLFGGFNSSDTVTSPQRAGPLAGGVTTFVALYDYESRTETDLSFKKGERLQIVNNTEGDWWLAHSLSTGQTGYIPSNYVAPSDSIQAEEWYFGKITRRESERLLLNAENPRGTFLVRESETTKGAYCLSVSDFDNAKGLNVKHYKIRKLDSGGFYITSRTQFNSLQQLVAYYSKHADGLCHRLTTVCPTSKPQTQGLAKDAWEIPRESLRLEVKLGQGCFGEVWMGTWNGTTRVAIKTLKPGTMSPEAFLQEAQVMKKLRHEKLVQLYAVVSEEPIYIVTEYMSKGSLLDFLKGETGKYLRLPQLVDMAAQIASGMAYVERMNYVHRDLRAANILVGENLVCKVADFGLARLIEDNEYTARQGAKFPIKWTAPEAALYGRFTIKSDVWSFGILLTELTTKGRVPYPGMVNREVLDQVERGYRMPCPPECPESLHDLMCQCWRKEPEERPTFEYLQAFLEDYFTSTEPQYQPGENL

Chain of Tyrosine-protein kinase Lck (P06239 whole entry): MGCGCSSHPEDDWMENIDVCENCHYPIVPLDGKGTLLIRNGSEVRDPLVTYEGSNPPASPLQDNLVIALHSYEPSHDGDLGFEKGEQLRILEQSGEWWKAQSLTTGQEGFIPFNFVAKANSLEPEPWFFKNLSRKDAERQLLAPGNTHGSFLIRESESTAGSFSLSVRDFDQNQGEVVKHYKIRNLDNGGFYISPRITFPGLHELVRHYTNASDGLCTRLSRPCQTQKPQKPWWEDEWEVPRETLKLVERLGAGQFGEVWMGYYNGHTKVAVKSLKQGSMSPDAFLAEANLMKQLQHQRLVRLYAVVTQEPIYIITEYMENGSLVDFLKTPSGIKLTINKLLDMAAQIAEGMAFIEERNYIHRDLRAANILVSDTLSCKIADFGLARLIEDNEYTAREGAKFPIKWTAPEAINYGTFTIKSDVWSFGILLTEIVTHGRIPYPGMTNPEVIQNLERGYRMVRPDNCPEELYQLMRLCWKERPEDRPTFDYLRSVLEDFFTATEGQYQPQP

As to `COc1cccc(Nc2ncc3c(n2)N2CCC(=O)N2C(c2c(Cl)cccc2Cl)=C3)c1`, the IC50 (in general, the midpoint of a concentration-inhibition curve) in data set [1] (read-out: IC50) was 179 nM.

As for `CN1C(c2c(Cl)cccc2Cl)=Cc2cnc(Nc3ccc(F)cc3)nc2N1C`, in data set [1] (read-out: IC50), the IC50 turned out to be 3200 nM.

As for `CCN(CC)CCOc1ccc(Nc2ncc3c(n2)N2CCC(=O)N2C(c2c(Cl)cccc2Cl)=C3)cc1`, the remaining at 1 h in data set [2] was greater than 84%. In data set [3], the bioavailability (in general, the share of a dose that reaches the circulation, judged against a reference dose that is usually intravenous) came out at 14%. Further, the IC50 in data set [1] (read-out: IC50) was found to be 2 nM; in data set [4], 3.21 nM; in data set [5], 48 nM; in data set [8], 3 nM. Moreover, the concentration in solution in data set [6] (solubility) came to 33.8 µg/mL (≈ 62.7 µM). The half-life – broadly, the time in which the quantity being followed falls by half – in data set [7] was 1.5 h.

In the case of `O=C1CCN2c3nc(Nc4ccc(N5CCOCC5)cc4)ncc3C=C(c3c(Cl)cccc3Cl)N12`, the IC50 in data set [1] (read-out: IC50) is 3 nM; in data set [4], 2 nM; in data set [5] it was 160 nM; in data set [8] it was 104 nM. The solubility (usually how much of the substance goes into solution per volume) in data set [6] amounted to 6 µg/mL (≈ 11.8 µM).

In the case of `CN(C)c1ccc(Nc2ncc3c(n2)N2CCC(=O)N2C(c2cc(O)ccc2Cl)=C3)cc1`, the IC50 worked out at 10 nM in data set [1] (read-out: IC50), 0.546 nM in data set [4], 546 nM in data set [5] and 273 nM in data set [8]. This molecule also returned a solubility in data set [6] of 1 µg/mL (≈ 2.23 µM).

Consider `COc1ccc(Nc2ncc3c(n2)N2CCC(=O)N2C(c2c(Cl)cccc2Cl)=C3)cc1`, for which the IC50 in data set [1] (read-out: IC50) is 71 nM. The molecule further gave a solubility in data set [6] of 5 µg/mL (≈ 11 µM).

Take `CN(C)CCc1ccc(Nc2ncc3c(n2)N2CCC(=O)N2C(c2c(Cl)cccc2Cl)=C3)cc1`: in data set [1] (read-out: IC50), the IC50 amounted to 21 nM. In addition, the concentration in solution in data set [6] (solubility) was 10 µg/mL (≈ 20.2 µM).

With `CNc1ncc2c(n1)N1CCC(=O)N1C(c1c(Cl)cccc1Cl)=C2`, the IC50 in data set [1] (read-out: IC50) came out at 2810 nM.

Take `CCN(CC)c1ccc(Nc2ncc3c(n2)N2CCC(=O)N2C(c2c(Cl)cccc2Cl)=C3)cc1`: in data set [1] (read-out: IC50), the IC50 was determined as 43 nM. This molecule also showed a solubility in data set [6] of 1 µg/mL (≈ 2.02 µM).

Consider `COc1ccc(Cl)c(C2=Cc3cnc(Nc4ccc(N(C)C)cc4)nc3N3CCC(=O)N23)c1`, for which the IC50 in data set [1] (read-out: IC50) was determined as 2840 nM. The molecule further returned a solubility in data set [6] of 7 µg/mL (≈ 15.1 µM).

For the molecule `CN(C)c1ccc(Nc2ncc3c(n2)N2CCC(=O)N2C(c2c(Cl)cccc2Cl)=C3)cc1`, the IC50 in data set [1] (read-out: IC50) was found to be 26 nM. The molecule also came in with a solubility in data set [6] of 5 µg/mL (≈ 10.7 µM).

As for `COc1ccc(Cl)c(C2=Cc3cnc(Nc4ccc(F)cc4)nc3N3CCC(=O)N23)c1`, in data set [1] (read-out: IC50), the IC50 was determined as 4800 nM. Also, the solubility in data set [6] was 7 µg/mL (≈ 16 µM).

As for `CN1CCN(c2ccc(Nc3ncc4c(n3)N3CCC(=O)N3C(c3cc(O)ccc3Cl)=C4)cc2)CC1`, the IC50 in data set [1] (read-out: IC50) was 47 nM; in data set [4] it was 2.1 nM; in data set [5], 456 nM; in data set [8], 764 nM. In data set [6], the concentration in solution (solubility) came to 11 µg/mL (≈ 21.8 µM).

As to `O=C1CCN2c3nc(Nc4ccc(F)cc4)ncc3C=C(c3c(Cl)cccc3Cl)N12`, the half-maximal inhibitory concentration (IC50) in data set [1] (read-out: IC50) was found to be 124 nM. The same molecule gave a solubility in data set [6] of 2 µg/mL (≈ 4.52 µM).

Regarding `COC(=O)c1ccc(Nc2ncc3c(n2)N2CCC(=O)N2C(c2c(Cl)cccc2Cl)=C3)cc1`, the IC50 in data set [1] (read-out: IC50) came to 143 nM.

For `O=C1CCN2c3nc(Nc4ccccc4)ncc3C=C(c3c(Cl)cccc3Cl)N12`, the IC50 in data set [1] (read-out: IC50) was found to be 182 nM. In data set [6], the solubility turned out to be 2 µg/mL (≈ 4.71 µM).

As to `CN1C(c2ccccc2Cl)=Cc2cnc(Nc3ccc(F)cc3)nc2N1C`, the IC50 entry in data set [1] is reported as “Not Active”.

`CCOc1ccc(Nc2ncc3c(n2)N2CCC(=O)N2C(c2c(Cl)cccc2Cl)=C3)cc1`: the IC50 in data set [1] (read-out: IC50) was determined as 285 nM.

As for `COc1ccccc1Nc1ncc2c(n1)N1CCC(=O)N1C(c1c(Cl)cccc1Cl)=C2`, the IC50 in data set [1] (read-out: IC50) came to 7270 nM.
